Measurements reported in the supplement of paper PMC11451515.

Assays:
Details in all cases: 48 h
[1] = system: SEM cells; test: cell viability relative to DMSO control; higher = less cytotoxic
Procedure, shortened: (§1)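 NOMO1 or SEM (500 cells/well) or P12-Ichikawa (1000 cells/well) leukemia cells were adapted for at least four passages in each medium. They were seeded in 1536-well plates (5 μl) and pin-dosed with library compounds in DMSO over an 11-point threefold series, 47 μM to 0.79 nM. CellTiter-Glo One luminescence was read after 48 h at 37°C. Viability is the per-plate percentage relative to DMSO wells, with cell-free wells as background.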

[2] = system: NOMO1; test: as above
Procedure, shortened: as §1

[3] = system: P12-Ichikawa; test: as above
Procedure, shortened: as §1

[4] = system: SEM cells; test: AUC of viability dose-response curve (% viability x log10 dose units); higher = less sensitive
Procedure, shortened: (§2)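 Leukemia cells adapted to each medium were seeded in 1536-well plates (500 or 1000 cells/well). They were dosed with library compounds in DMSO at 11 threefold doses, 47 μM to 0.79 nM, for 48 h at 37°C. CellTiter-Glo One luminescence was normalised per plate to DMSO and cell-free wells. Area under the curve was integrated by trapezoidal rule over log10 doses on a four-parameter log-logistic fit; curves exceeding full viability were scaled and curves failing quality control removed.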

[5] = system: NOMO1; test: as above
Procedure, shortened: as §2

[6] = system: P12-Ichikawa; test: as above
Procedure, shortened: as §2

[7] = HPLM + 10% dialyzed FBS, 0.000781 µM
[8] = HPLM + 10% dialyzed FBS, 0.00234 µM
[9] = HPLM + 10% dialyzed FBS, 0.00702 µM
[10] = HPLM + 10% dialyzed FBS, 0.0211 µM
[11] = HPLM + 10% dialyzed FBS, 0.0632 µM
[12] = HPLM + 10% dialyzed FBS, 0.19 µM
[13] = HPLM + 10% dialyzed FBS, 0.569 µM
[14] = HPLM + 10% dialyzed FBS, 1.71 µM
[15] = HPLM + 10% dialyzed FBS, 5.12 µM
[16] = HPLM + 10% dialyzed FBS, 15.4 µM
[17] = HPLM + 10% dialyzed FBS, 46.1 µM
[18] = RPMI 5 mM glucose + 10% FBS, 0.000781 µM
[19] = RPMI 5 mM glucose + 10% FBS, 0.00234 µM
[20] = RPMI 5 mM glucose + 10% FBS, 0.00702 µM
[21] = RPMI 5 mM glucose + 10% FBS, 0.0211 µM
[22] = RPMI 5 mM glucose + 10% FBS, 0.0632 µM
[23] = RPMI 5 mM glucose + 10% FBS, 0.19 µM
[24] = RPMI 5 mM glucose + 10% FBS, 0.569 µM
[25] = RPMI 5 mM glucose + 10% FBS, 1.71 µM
[26] = RPMI 5 mM glucose + 10% FBS, 5.12 µM
[27] = RPMI 5 mM glucose + 10% FBS, 15.4 µM
[28] = RPMI 5 mM glucose + 10% FBS, 46.1 µM
[29] = RPMI 5 mM glucose + 10% dialyzed FBS, 0.000781 µM
[30] = RPMI 5 mM glucose + 10% dialyzed FBS, 0.00234 µM
[31] = RPMI 5 mM glucose + 10% dialyzed FBS, 0.00702 µM
[32] = RPMI 5 mM glucose + 10% dialyzed FBS, 0.0211 µM
[33] = RPMI 5 mM glucose + 10% dialyzed FBS, 0.0632 µM
[34] = RPMI 5 mM glucose + 10% dialyzed FBS, 0.19 µM
[35] = RPMI 5 mM glucose + 10% dialyzed FBS, 0.569 µM
[36] = RPMI 5 mM glucose + 10% dialyzed FBS, 1.71 µM
[37] = RPMI 5 mM glucose + 10% dialyzed FBS, 5.12 µM
[38] = RPMI 5 mM glucose + 10% dialyzed FBS, 15.4 µM
[39] = RPMI 5 mM glucose + 10% dialyzed FBS, 46.1 µM
[40] = RPMI 5 mM glucose + 10% dialyzed FBS

CO[C@@H]1[C@H](N(C)C(=O)c2ccccc2)C[C@H]2O[C@]1(C)n1c3ccccc3c3c4c(c5c6ccccc6n2c5c31)C(=O)NC4
cell viability [1, 7]: 103%
cell viability [1, 8]: 104%
cell viability [1, 9]: 119%
cell viability [1, 10]: 97%
cell viability [1, 11]: 114%
cell viability [1, 12]: 105%
cell viability [1, 13]: 55.5%
cell viability [1, 14]: 37.6%
cell viability [1, 15]: 20.7%
cell viability [1, 16]: 12.7%
cell viability [1, 17]: 7%
cell viability [1, 18]: 87%
cell viability [1, 19]: 111%
cell viability [1, 20]: 110%
cell viability [1, 21]: 106%
cell viability [1, 22]: 105%
cell viability [1, 23]: 92.4%
cell viability [1, 24]: 64.2%
cell viability [1, 25]: 30.3%
cell viability [1, 26]: 10.9%
cell viability [1, 27]: 6.27%
cell viability [1, 28]: 4.63%
cell viability [1, 29]: 101%
cell viability [1, 30]: 108%
cell viability [1, 31]: 109%
cell viability [1, 32]: 97%
cell viability [1, 33]: 107%
cell viability [1, 34]: 85.5%
cell viability [1, 35]: 63%
cell viability [1, 36]: 34.7%
cell viability [1, 37]: 11.8%
cell viability [1, 38]: 7.3%
cell viability [1, 39]: 4.43%
cell viability [2, 7]: 103%
cell viability [2, 8]: 104%
cell viability [2, 9]: 128%
cell viability [2, 10]: 116%
cell viability [2, 11]: 153%
cell viability [2, 12]: 134%
cell viability [2, 13]: 135%
cell viability [2, 14]: 114%
cell viability [2, 15]: 80%
cell viability [2, 16]: 54.5%
cell viability [2, 17]: 49.5%
cell viability [2, 18]: 96.7%
cell viability [2, 19]: 116%
cell viability [2, 20]: 107%
cell viability [2, 21]: 114%
cell viability [2, 22]: 121%
cell viability [2, 23]: 115%
cell viability [2, 24]: 118%
cell viability [2, 25]: 105%
cell viability [2, 26]: 87.1%
cell viability [2, 27]: 50.9%
cell viability [2, 28]: 44.3%
cell viability [2, 29]: 117%
cell viability [2, 30]: 113%
cell viability [2, 31]: 123%
cell viability [2, 32]: 111%
cell viability [2, 33]: 110%
cell viability [2, 34]: 105%
cell viability [2, 35]: 114%
cell viability [2, 36]: 93.2%
cell viability [2, 37]: 80.3%
cell viability [2, 38]: 50.8%
cell viability [2, 39]: 49.5%
cell viability [3, 7]: 113%
cell viability [3, 8]: 111%
cell viability [3, 9]: 113%
cell viability [3, 10]: 112%
cell viability [3, 11]: 121%
cell viability [3, 12]: 122%
cell viability [3, 13]: 122%
cell viability [3, 14]: 109%
cell viability [3, 15]: 17.9%
cell viability [3, 16]: 15%
cell viability [3, 17]: 18.9%
cell viability [3, 18]: 112%
cell viability [3, 19]: 110%
cell viability [3, 20]: 111%
cell viability [3, 21]: 117%
cell viability [3, 22]: 119%
cell viability [3, 23]: 122%
cell viability [3, 24]: 124%
cell viability [3, 25]: 106%
cell viability [3, 26]: 24.4%
cell viability [3, 27]: 28.8%
cell viability [3, 28]: 24.4%
cell viability [3, 29]: 111%
cell viability [3, 30]: 125%
cell viability [3, 31]: 117%
cell viability [3, 32]: 116%
cell viability [3, 33]: 123%
cell viability [3, 34]: 140%
cell viability [3, 35]: 126%
cell viability [3, 36]: 111%
cell viability [3, 37]: 35.7%
cell viability [3, 38]: 33.1%
cell viability [3, 39]: 30.2%
AUC of viability dose-response curve ([4]; HPLM + 10% dialyzed FBS): 313
AUC of viability dose-response curve ([4]; RPMI 5 mM glucose + 10% FBS): 308
AUC of viability dose-response curve [4, 40]: 305
AUC of viability dose-response curve ([5]; HPLM + 10% dialyzed FBS): 415
AUC of viability dose-response curve ([5]; RPMI 5 mM glucose + 10% FBS): 424
AUC of viability dose-response curve [5, 40]: 412
AUC of viability dose-response curve ([6]; HPLM + 10% dialyzed FBS): 373
AUC of viability dose-response curve ([6]; RPMI 5 mM glucose + 10% FBS): 380
AUC of viability dose-response curve [6, 40]: 386

COc1cc2c(NC3CCN(C(C)C)CC3)nc(C3CCCCC3)nc2cc1OCCCN1CCCC1
cell viability [1, 7]: 111%
cell viability [1, 8]: 125%
cell viability [1, 9]: 109%
cell viability [1, 10]: 122%
cell viability [1, 11]: 122%
cell viability [1, 12]: 125%
cell viability [1, 13]: 130%
cell viability [1, 14]: 81.9%
cell viability [1, 15]: 108%
cell viability [1, 16]: 61.7%
cell viability [1, 17]: 6.83%
cell viability [1, 18]: 109%
cell viability [1, 19]: 113%
cell viability [1, 20]: 122%
cell viability [1, 21]: 116%
cell viability [1, 22]: 112%
cell viability [1, 23]: 122%
cell viability [1, 24]: 109%
cell viability [1, 25]: 77.3%
cell viability [1, 26]: 113%
cell viability [1, 27]: 76.6%
cell viability [1, 28]: 10.2%
cell viability [1, 29]: 90.1%
cell viability [1, 30]: 114%
cell viability [1, 31]: 111%
cell viability [1, 32]: 119%
cell viability [1, 33]: 116%
cell viability [1, 34]: 113%
cell viability [1, 35]: 112%
cell viability [1, 36]: 76.8%
cell viability [1, 37]: 115%
cell viability [1, 38]: 93.5%
cell viability [1, 39]: 32.9%
cell viability [2, 7]: 120%
cell viability [2, 8]: 133%
cell viability [2, 9]: 123%
cell viability [2, 10]: 118%
cell viability [2, 11]: 142%
cell viability [2, 12]: 128%
cell viability [2, 13]: 118%
cell viability [2, 14]: 130%
cell viability [2, 15]: 111%
cell viability [2, 16]: 102%
cell viability [2, 17]: 9.5%
cell viability [2, 18]: 107%
cell viability [2, 19]: 117%
cell viability [2, 20]: 114%
cell viability [2, 21]: 129%
cell viability [2, 22]: 117%
cell viability [2, 23]: 130%
cell viability [2, 24]: 134%
cell viability [2, 25]: 114%
cell viability [2, 26]: 118%
cell viability [2, 27]: 115%
cell viability [2, 28]: 18.2%
cell viability [3, 7]: 107%
cell viability [3, 8]: 110%
cell viability [3, 9]: 115%
cell viability [3, 10]: 121%
cell viability [3, 11]: 121%
cell viability [3, 12]: 121%
cell viability [3, 13]: 120%
cell viability [3, 14]: 123%
cell viability [3, 15]: 119%
cell viability [3, 16]: 105%
cell viability [3, 17]: 4.7%
cell viability [3, 18]: 112%
cell viability [3, 19]: 127%
cell viability [3, 20]: 113%
cell viability [3, 21]: 127%
cell viability [3, 22]: 121%
cell viability [3, 23]: 116%
cell viability [3, 24]: 120%
cell viability [3, 25]: 131%
cell viability [3, 26]: 112%
cell viability [3, 27]: 96.9%
cell viability [3, 28]: 3.81%
cell viability [3, 29]: 106%
cell viability [3, 30]: 117%
cell viability [3, 31]: 114%
cell viability [3, 32]: 121%
cell viability [3, 33]: 123%
cell viability [3, 34]: 129%
cell viability [3, 35]: 122%
cell viability [3, 36]: 133%
cell viability [3, 37]: 110%
cell viability [3, 38]: 91.5%
cell viability [3, 39]: 4.78%
AUC of viability dose-response curve ([4]; HPLM + 10% dialyzed FBS): 419
AUC of viability dose-response curve ([4]; RPMI 5 mM glucose + 10% FBS): 440
AUC of viability dose-response curve [4, 40]: 454
AUC of viability dose-response curve ([5]; HPLM + 10% dialyzed FBS): 444
AUC of viability dose-response curve ([5]; RPMI 5 mM glucose + 10% FBS): 455
AUC of viability dose-response curve [5, 40]: 438
AUC of viability dose-response curve ([6]; HPLM + 10% dialyzed FBS): 449
AUC of viability dose-response curve ([6]; RPMI 5 mM glucose + 10% FBS): 445
AUC of viability dose-response curve [6, 40]: 441
